According to patent US20100152622A1, “MOTOR PHENOMENON MEASUREMENT” (priority 2007, published 2010):
“Also recorded” adds a separate entry of the source.

Tests used:
[1] = system: schizophrenia patients; assay: Handwriting velocity scaling (VS) in patients grouped by antipsychotic medication; type: in vivo, human; conditions: lower VS scores indicate more parkinsonian bradykinesia; loops of 1, 2, 4 cm
From the text: Lower VS scores indicate more parkinsonian bradykinesia.
This measure expresses the extent to which movements are sped up when size is increased.
One simple and direct measure is the increase of a velocity measure in one stroke (e.g., in cm/s) divided by the increase of size (e.g., in cm). This resulting velocity scaling has a unit of size/duration/size or 1/duration.

[2] = system: schizophrenia patients; conditions: for average normalized jerk (ANJ) score compared between medication groups / average normalized jerk (ANJ) score compared with healthy subjects: handwriting dysfluency; for average normalized jerk (ANJ) score compared between medication groups: marker of TD/EPS, 9 handwriting tasks, dominant hand, 1, 2, 4 cm, versus other medications; for average normalized jerk (ANJ) score compared with healthy subjects: medication group versus normal healthy subjects
[3] = system: schizophrenia patients; assay: Observer-based EPS severity ratings (SAEPS, AIMS, BARS); type: in vivo, human
[4] = system: schizophrenia patients; conditions: in vivo
[5] = molecular target: dopamine receptor (Homo sapiens, UniProt P14416); conditions: PET in schizophrenic patients before and after treatment; cited from earlier work
dopamine receptor, sequence (P14416 whole entry): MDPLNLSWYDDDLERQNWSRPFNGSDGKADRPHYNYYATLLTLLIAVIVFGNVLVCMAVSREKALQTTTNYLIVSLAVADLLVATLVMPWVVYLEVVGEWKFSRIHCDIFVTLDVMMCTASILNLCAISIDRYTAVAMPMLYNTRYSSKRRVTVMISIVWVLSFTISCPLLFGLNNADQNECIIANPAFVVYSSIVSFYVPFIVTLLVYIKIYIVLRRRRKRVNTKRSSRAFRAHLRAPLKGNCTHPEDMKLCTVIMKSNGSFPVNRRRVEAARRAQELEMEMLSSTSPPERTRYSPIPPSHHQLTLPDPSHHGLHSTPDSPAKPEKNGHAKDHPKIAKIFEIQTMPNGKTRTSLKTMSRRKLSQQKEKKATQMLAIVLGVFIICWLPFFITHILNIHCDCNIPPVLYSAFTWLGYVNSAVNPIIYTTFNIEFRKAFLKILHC

effect of antipsychotic type on average normalized jerk and peak velocity ([2]; collapsed across all 14 task conditions)	Structure (SMILES)	velocity scaling (VS) score (slope of peak vertical velocity versus vertical size) compared between medication groups [1]	average normalized jerk (ANJ) score compared between medication groups [2]	average normalized jerk (ANJ) score compared with healthy subjects [2]	observer-based EPS assessments: medicated versus unmedicated groups and relationship with dose ([3]; conventional ratings)	correlation between observer-based severity ratings and dose ([3]; p>0.05)	correlation (r) of peak vertical velocity with daily dose [4]	motor impairment quantified by handwriting movements [4]	relationship between reduction in handwriting size (area) and dopamine receptor occupancy [5]
doing worse than others	O=C1CCc2ccc(OCCCCN3CCN(c4cccc(Cl)c4Cl)CC3)cc2N1 [aripiprazole]	lower VS scores than those on olanzapine or quetiapine; also recorded: lower VS scores than those on other medications	significantly higher ANJ	significantly higher ANJ scores than healthy subjects	–	–	–	–	–
–	OCCOCCN1CCN(C2=Nc3ccccc3Sc3ccccc32)CC1 [quetiapine]	–	significantly less abnormality than those treated with aripiprazole or risperidone	did not differ from normal healthy subjects	–	–	–	–	–
–	Cc1nc2n(c(=O)c1CCN1CCC(c3noc4cc(F)ccc34)CC1)CCCC2 [risperidone]	–	–	–	not able to detect differences between risperidone-medicated and unmedicated groups or a relationship with risperidone dose	no significant correlations	−0.45	significant motor impairment	significant relationship between reduction in handwriting size (expressed by area) and dopamine receptor occupancy
